Two molecules from patent US10508111B2, “6-[5-amino-6-(2-ethoxyethoxy)-imidazo[4,5-B]pyridin-3-yl]-nicotinonitrile derivatives and their use as IRAK inhibitors” (GALAPAGOS NV, priority 2015, dated 2019) can be followed below.

One assay concerns the target T1, GSK3b (Homo sapiens, UniProt P49841).
T1 construct: purchased Carna Biosciences 04-141
Put plainly: Kinase selectivity profiling (focused panel), radioactive filter plate assay: GSK3b. It counts as biochemical. The following applies: Phospho glycogen synthase peptide2, 1.5 μM ATP, 90 min. Here is the method: The purpose of this assay is to determine the activity and selectivity of a compound of the invention on a selected range of human kinases which may result in undesirable side-effects when inhibited (Dy & Adjei 2013; Force & Kolaja 2011).
The IC50 value for off-target kinases is determined in radioactive filter plate assays. The principle of the assays consists in the measurement of incorporated ^33P into a peptide substrate upon phosphorylation by the kinase enzyme using [γ-^33P]ATP and ATP. Unincorporated ^33P is removed by loading the samples on a filter plate (using a harvester, PerkinElmer) and 6 subsequent washing steps. Incorporated ^33P in the peptide substrate is measured by a scintillation counter (Topcount, PerkinElmer) after addition of MicroScint™-20 (PerkinElmer, 6013621) to the filter plates.
5 μL of a water dilution series of test compound (starting from 20 μM or 6.6 μM highest concentration), from a 100% DMSO stock solution, 1/5 dilution, is added to the wells (final DMSO concentration of 1% in reaction assay). Enzyme and peptide substrate are used at optimized concentrations (cf. Table VI). The enzyme and substrate are diluted in assay buffer to a total volume of 11 μL. The reaction is started by addition of 9 μL of ATP+[γ-^33P]ATP, diluted in the same buffer as enzyme and substrate. The mixture is incubated at 30° C. The reaction is terminated by adding 25 μL of 150 mM phosphoric acid. Samples are transferred to filter plates and incorporated radioactivity is measured using a scintillation counter.
The incubation time, assay buffer composition, and concentrations of ATP, enzyme and substrate are reported in Table VI for example kinase off-target assays.
10 μM staurosporine (1% DMSO) is used as positive control (100% inhibition); vehicle (water+1% DMSO) as negative control (0% inhibition).

Assay [1] relates to TNFα triggered MMP13 release in SW1353 cells. Nature of the assay: SW1353 cellular selectivity assay, TNFα trigger, MMP13 readout. The following applies: TNFα trigger 10 ng/mL; for IC50: Homo sapiens; for TNFα trigger MMP13 PIN at 20 μM: percent inhibition at 20 μM compound. It counts as cell-based, human. From the text: The aim of this assay is to evaluate the selectivity of compounds of the invention for the activated TLR/IRAK-4 pathway in an in vitro human cellular assay setting. SW1353 cells are from a chondrocytic cell line and are responsive to both the interleukin 1 (IL-1) and the TNFα cytokine triggers. Both cytokine triggers induce the expression of interleukin 6 (IL-6) and MMP13 by these cells. IL-6 and MMP13 releases are used as readouts in this assay and represent a measure for the level of inhibition of the TLR/IRAK-4 pathway by the tested compound.
SW1353 cells are cultured in DMEM supplemented with 10% FBS and 1% Penicillin/Streptomycin. Cells are incubated at 37° C. in a humidified atmosphere of 5% CO2 and subcultured twice a week. During subculturing, trypsin-EDTA is used to detach the cells, followed by a neutralization step with cell culture medium. After centrifugation (1,000 rpm during 5 min), the pellet is resuspended in cell culture medium and cells are counted using an automated cell counter (Invitrogen Countess™).
Cells are used at passage 16 and plated at a density of 15,000 cells per well in 120 μL cell culture medium in 96-well culture plates. Cells are allowed to attach during overnight incubation.
SW1353 cells are pre-incubated with test compound by addition of 15 μL of 10× concentrated compound solution for 2 h at 37° C. and 5% CO2. The compounds are tested at different concentrations and prepared by 3-fold serial dilutions from the 10 mM stock solution in DMSO followed by a 1/50 dilution step in cell culture medium. Final test concentrations in the assay start from 20 μM, with subsequent 3-fold serial dilutions with equal final DMSO concentrations of 0.2%. After the compound pre-incubation step, the SW1353 cells are triggered by addition of 15 μL of 10× concentrated IL-1f (Peprotech, 200-01B) or TNFα trigger (Peprotech, 300-01A) to the wells with final assay volume of 150 μL per well and final trigger concentration of 1 ng/mL and 10 ng/mL, respectively. Negative controls are adjusted with equal DMSO concentrations without trigger. The assay plates are then incubated in a humidified incubator at 37° C. and 5% CO2. Cell supernatants are harvested 24 h and 48 h later by transferring the cell medium into a V-bottom polypropylene 96-well plate and stored at −80° C. until ELISA readout.
The levels of secreted MMP13 in the cell supernatants are quantified in an antibody capture activity assay. […] After incubation for 1 h at 37° C., fluorescence of the converted substrate is measured with a PerkinElmer EnVision® (excitation wavelength: 320 nm, emission wavelength: 405 nm).
All controls are measured within the linear range of the human IL-6 and MMP13 standard curve of the ELISA. […]

T1 sequence (P49841 whole entry): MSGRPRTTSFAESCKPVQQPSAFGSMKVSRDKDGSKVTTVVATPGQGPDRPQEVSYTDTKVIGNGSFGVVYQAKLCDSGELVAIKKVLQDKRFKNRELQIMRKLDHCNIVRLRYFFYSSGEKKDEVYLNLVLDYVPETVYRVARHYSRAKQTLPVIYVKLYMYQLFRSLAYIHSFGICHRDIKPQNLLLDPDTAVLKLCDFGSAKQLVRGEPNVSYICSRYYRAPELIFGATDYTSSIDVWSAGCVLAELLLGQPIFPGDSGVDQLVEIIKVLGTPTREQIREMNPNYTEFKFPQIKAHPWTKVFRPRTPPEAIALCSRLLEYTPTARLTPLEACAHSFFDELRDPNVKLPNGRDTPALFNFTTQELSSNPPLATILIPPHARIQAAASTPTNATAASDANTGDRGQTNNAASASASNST

Take `N#Cc1ccc(-n2cnc3cc(OCCOCCO)c(NC4CCOCC4)nc32)nc1` [Compound 1, 6-[6-[2-(2-hydroxy-ethoxy)-ethoxy]-5-(tetrahydro-pyran-4-ylamino)-imidazo[4,5-b]pyridin-3-yl]-nicotinonitrile]: at GSK3b, the IC50 (usually the point on the concentration scale where inhibition reaches its midpoint) was greater than 6.67 µM. Moreover, in assay [1], the IC50 was greater than 20 µM and the “TNFα trigger MMP13 PIN at 20 μM” value is “[26%]”.

Regarding `C[C@]1(O)CC[C@@H](Nc2nc3c(cc2OCCOCCO)ncn3-c2ccc(C#N)cn2)CC1` [Compound 12, 6-[6-[2-(2-hydroxyethoxy)ethoxy]-5-[((cis-1,4)-4-hydroxy-4-methylcyclohexyl)amino]imidazo[4,5-b]pyridin-3-yl]pyridine-3-carbonitrile], at GSK3b, the half-inhibitory concentration (IC50) was greater than 1.33 µM. Further, in assay [1], the IC50 is greater than 20 µM and the “TNFα trigger MMP13 PIN at 20 μM” value was “[36%]”.
